≈ marks a conversion by molar mass, not a printed value.
Assays:
[1] = target: T1, C-X-C chemokine receptor type 3 (Homo sapiens, UniProt P49682); assay: Antagonist activity at human CXCR3 expressed in CHO cells by FLIPR-based calcium mobilization assay; format: functional, cell-based
T1 sequence (P49682 whole entry): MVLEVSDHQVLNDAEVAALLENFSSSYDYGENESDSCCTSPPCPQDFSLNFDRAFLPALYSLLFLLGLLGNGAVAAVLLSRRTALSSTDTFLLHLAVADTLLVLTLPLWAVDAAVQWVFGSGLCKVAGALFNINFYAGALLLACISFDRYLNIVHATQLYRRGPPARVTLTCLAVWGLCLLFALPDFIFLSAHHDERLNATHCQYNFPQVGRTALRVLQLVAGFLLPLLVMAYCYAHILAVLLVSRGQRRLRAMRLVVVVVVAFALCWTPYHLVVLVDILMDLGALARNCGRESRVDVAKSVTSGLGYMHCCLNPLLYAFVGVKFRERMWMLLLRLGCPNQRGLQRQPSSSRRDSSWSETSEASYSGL

[2] = target: T1, C-X-C chemokine receptor type 3; assay: Displacement of [125]CXCL10 from human CXCR3 expressed in CHO cells; format: cell-based
[3] = Clearance in SJL mouse at 10 mg/kg, po and 5 mg/kg, iv; format: ADME, organism-based; conditions: in vivo
[4] = Bioavailability in SJL mouse at 20 mg/kg, po; format: ADME, organism-based; conditions: in vivo
Liver microsomes = assay: Stability in rat liver microsome; format: ADME
[5] = Protein binding in rat plasma; format: ADME, cell-free; conditions: read-out: PPB (converted)
[6] = Half life in SJL mouse at 20 mg/kg, po; format: ADME, organism-based; set-up: dose 20 mg/kg, route oral; conditions: in vivo
[7] = Aqueous solubility of the compound; format: physicochemical; conditions: buffer

SMILES	IC50 [2] [µM]	further results
CCCc1cccc2c1n(C)c(=N)n2CC(=O)c1ccc(Cl)cc1	0.5	IC50 [1]: 0.4 µM
Cn1c(=N)n(CC(=O)c2ccc(Cl)cc2)c2cccc(Cl)c21	0.3	
Cn1c(=N)n(CC(=O)c2cccc(Cl)c2)c2ccccc21	16	
Cn1c(=N)n(CC(=O)c2ccc(Cl)c(Cl)c2)c2ccccc21	4	
C[S+]([O-])c1nc2ccccc2n1CC(=O)c1ccc([N+](=O)[O-])cc1 (stereo not given)	11	
CC(=O)c1nc2cc(-c3ccccc3)ccc2n1CC(=O)c1ccc(Br)cc1	> 50	
COc1ccc2c(c1)nc(C(C)=O)n2CC(=O)c1ccc(Br)cc1	> 50	
CC(=O)c1nc2ccccc2n1CC(=O)c1ccc(Br)cc1	2	
Cn1c(=N)n(CC(=O)c2ccc(Cl)cc2)c2ccccc21	0.8	IC50 [1]: 9 µM; solubility [7]: 84 µM (≈ 25.2 µg/mL)
COc1cccc2c1n(C)c(=N)n2CC(=O)c1ccc(Br)cc1	0.8	
Cn1c(=N)n(CCc2ccc(Br)cc2)c2ccccc21	11	
Cn1c(=N)n(C[S+]([O-])c2ccc(Cl)cc2)c2ccccc21 (stereo not given)	3	
COCC/N=c1/n(C)c2ccccc2n1CC(=O)c1ccc(Br)cc1	1	
CC(O)c1nc2ccccc2n1CC(=O)c1ccc([N+](=O)[O-])cc1 (stereo not given)	20	
Cn1c(=N)n(CC(=O)c2ccc(Cl)cc2)c2cccc(C(F)(F)F)c21	0.7	
Cn1c(=N)n(CCCC(=O)c2ccc(Br)cc2)c2ccccc21	6	
CC(=O)c1nc2ccccc2n1CC(=O)c1ccc(C#N)cc1	> 100	
CC(=O)c1nc2ccccc2n1CC(=O)c1ccc(Cl)cc1	8	
CC(=O)/N=c1/n(C)c2ccccc2n1CC(=O)c1ccc([N+](=O)[O-])cc1	50	

Second part, led by results:

IC50 [2] [µM]	SMILES	further results
0.8	Cn1c(=N)n(CC(=O)c2ccc(Br)cc2)c2ccccc21	
0.1	Cc1cccc2c1n(C)c(=N)n2CC(=O)c1ccc(Cl)cc1	IC50 [1]: 0.08 µM; clearance [3]: 95 mL/min/kg; bioavailability [4]: 57%; Stability (Liver microsomes): 49%; fraction unbound [5]: 0.15; half-life [6]: 4.9 h; solubility [7]: 79 µM (≈ 24.8 µg/mL)
1	Cc1ccc2c(c1)n(C)c(=N)n2CC(=O)c1ccc(Cl)cc1	IC50 [1]: 5 µM
0.03	CCc1cccc2c1n(C)c(=N)n2CC(=O)c1ccc(Cl)cc1	IC50 [1]: 0.07 µM
> 50	COc1ccc2nc(C(C)=O)n(CC(=O)c3ccc(Br)cc3)c2c1	
> 100	CC(=O)c1nc2ccccc2n1CC(=O)c1ccccc1	
3	CC(=O)c1nc2ccccc2n1CC(=O)c1ccc([N+](=O)[O-])cc1	solubility [7]: 4.5 µM (≈ 1.45 µg/mL)
8	Cc1ccc2c(c1)n(CC(=O)c1ccc(Cl)cc1)c(=N)n2C	
40	Cn1c(=N)n(CC(O)c2ccc(Br)cc2)c2ccccc21 (stereo not given)	
3	COc1cccc2c1nc(C(C)=O)n2CC(=O)c1ccc(Br)cc1	
22	Cn1c(=N)n(CC(=O)c2ccccc2Cl)c2ccccc21	
> 50	CC(=O)c1nc2ccc(-c3ccccc3)cc2n1CC(=O)c1ccc(Br)cc1	
0.8	C/N=c1/n(C)c2ccccc2n1CC(=O)c1ccc(Cl)cc1	

Source: ChEMBL document CHEMBL1141624, “Discovery of small molecule benzimidazole antagonists of the chemokine receptor CXCR3” (Bioorg Med Chem Lett, 2008)
